Assay results from ChEMBL document CHEMBL6182898, “Design, synthesis and bioevaluation of novel hydrazide derivatives as enhancers of immunotherapy and DNA-damage response in antitumor therapy” (Eur J Med Chem, 2025).
Active and inactive are the calls of the source. No cut-off for these calls is given here.

Assays:
Histone deacetylase 8 = molecular target: T1, Histone deacetylase 8 (Homo sapiens, UniProt Q9BY41); assay: Inhibition of HDAC8 (unknown origin)
T1 sequence (Q9BY41 whole entry): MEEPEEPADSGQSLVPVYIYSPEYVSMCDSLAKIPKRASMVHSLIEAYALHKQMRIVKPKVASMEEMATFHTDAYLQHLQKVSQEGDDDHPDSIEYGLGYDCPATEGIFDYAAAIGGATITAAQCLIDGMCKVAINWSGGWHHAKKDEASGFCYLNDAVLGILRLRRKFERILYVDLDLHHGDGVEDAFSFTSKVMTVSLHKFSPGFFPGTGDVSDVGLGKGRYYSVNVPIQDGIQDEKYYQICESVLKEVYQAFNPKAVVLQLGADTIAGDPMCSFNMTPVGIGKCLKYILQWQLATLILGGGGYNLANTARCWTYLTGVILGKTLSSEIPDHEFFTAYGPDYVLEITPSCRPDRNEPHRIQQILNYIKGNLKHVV

[1] = molecular target: T2, Histone deacetylase 3 (Mus musculus) (UniProt O88895); assay: Inhibition of HDAC3 in mouse B16-F10 cells assessed as reduction in PD-L1 level at 2.5 uM incubated for 24 hrs by immunofluorescence based analysis; assay type: cell-based
T2 sequence (whole entry): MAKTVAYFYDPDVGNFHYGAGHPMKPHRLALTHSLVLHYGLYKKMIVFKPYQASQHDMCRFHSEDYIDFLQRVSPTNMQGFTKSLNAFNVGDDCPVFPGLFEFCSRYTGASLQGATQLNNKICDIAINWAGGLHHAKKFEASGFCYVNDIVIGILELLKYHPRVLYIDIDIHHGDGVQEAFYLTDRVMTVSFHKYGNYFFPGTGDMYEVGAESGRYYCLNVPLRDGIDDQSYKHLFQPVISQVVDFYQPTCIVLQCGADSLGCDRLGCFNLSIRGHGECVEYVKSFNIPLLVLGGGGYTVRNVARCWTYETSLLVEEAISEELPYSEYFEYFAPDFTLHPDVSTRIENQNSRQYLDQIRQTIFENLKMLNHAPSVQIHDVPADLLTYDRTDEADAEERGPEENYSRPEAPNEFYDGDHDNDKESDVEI

[2] = molecular target: T2, Histone deacetylase 3 (Mus musculus); assay: Inhibition of HDAC3 in mouse B16-F10 cells assessed as increase in Ac-H3K56 level at 2.5 to 10 uM incubated for 24 hrs by Western blot analysis; assay type: cell-based; details: dose 2.5-10 µM
B16-F10 [3] = assay: Upregulation of Ac-alpha-tubulin level in mouse B16-F10 cells at 2.5 to 10 uM incubated for 24 hrs by Western blot analysis; assay type: functional, cell-based; details: dose 2.5-10 µM
SK-OV-3 = assay: Antiproliferative activity against human SK-OV-3 cells incubated for 72 hrs by MTT assay; assay type: functional, cell-based; details: SK-OV-3, 72 h
[4] = Antiproliferative activity against human HK-2 cells incubated for 72 hrs by MTT assay
B16-F10 [5] = assay: Induction of antitumor immunity in mouse B16-F10 cells assessed as reduction in PD-L1 level incubated for 24 hrs by Western blot analysis; assay type: functional, cell-based; details: dose 2.5-10 µM
B16-F10 [6] = assay: Induction of antitumor immunity in mouse B16-F10 cells assessed as decrease in NCOR2 level at 2.5 to 10 uM incubated for 24 hrs by Western blot analysis; assay type: functional, cell-based; details: dose 2.5-10 µM
B16-F10 [7] = assay: Inhibition of cell invasion in mouse B16-F10 cells at 5 uM by transwell assay relative to control; assay type: functional
HCT-116 = assay: Antiproliferative activity against human HCT-116 cells incubated for 72 hrs by MTT assay; assay type: functional, cell-based; details: HCT-116, 72 h
B16-F10 [8] = assay: Induction of antitumor immunity in mouse B16-F10 cells assessed as increase in IFN-gamma level incubated for 24 hrs by Western blot analysis; assay type: functional, cell-based; details: dose 2.5-10 µM
B16-F10 [9] = assay: Induction of apoptosis in mouse B16-F10 cells assessed as late-stage apoptosis at 10 uM incubated for 48 hrs by Annexin V-FITC/PI staining based flow cytometry relative to control; assay type: functional
B16-F10 [10] = assay: Anti-migratory activity in mouse B16-F10 cells at 1.25 to 5 uM measured after 36 hrs by wound healing assay relative to control; assay type: functional; details: dose 1.25-5 µM
[11] = molecular target: T3, Protein deacetylase HDAC6 (Homo sapiens, UniProt Q9UBN7); assay: Inhibition of HDAC6 (unknown origin)
T3 sequence (Q9UBN7 whole entry): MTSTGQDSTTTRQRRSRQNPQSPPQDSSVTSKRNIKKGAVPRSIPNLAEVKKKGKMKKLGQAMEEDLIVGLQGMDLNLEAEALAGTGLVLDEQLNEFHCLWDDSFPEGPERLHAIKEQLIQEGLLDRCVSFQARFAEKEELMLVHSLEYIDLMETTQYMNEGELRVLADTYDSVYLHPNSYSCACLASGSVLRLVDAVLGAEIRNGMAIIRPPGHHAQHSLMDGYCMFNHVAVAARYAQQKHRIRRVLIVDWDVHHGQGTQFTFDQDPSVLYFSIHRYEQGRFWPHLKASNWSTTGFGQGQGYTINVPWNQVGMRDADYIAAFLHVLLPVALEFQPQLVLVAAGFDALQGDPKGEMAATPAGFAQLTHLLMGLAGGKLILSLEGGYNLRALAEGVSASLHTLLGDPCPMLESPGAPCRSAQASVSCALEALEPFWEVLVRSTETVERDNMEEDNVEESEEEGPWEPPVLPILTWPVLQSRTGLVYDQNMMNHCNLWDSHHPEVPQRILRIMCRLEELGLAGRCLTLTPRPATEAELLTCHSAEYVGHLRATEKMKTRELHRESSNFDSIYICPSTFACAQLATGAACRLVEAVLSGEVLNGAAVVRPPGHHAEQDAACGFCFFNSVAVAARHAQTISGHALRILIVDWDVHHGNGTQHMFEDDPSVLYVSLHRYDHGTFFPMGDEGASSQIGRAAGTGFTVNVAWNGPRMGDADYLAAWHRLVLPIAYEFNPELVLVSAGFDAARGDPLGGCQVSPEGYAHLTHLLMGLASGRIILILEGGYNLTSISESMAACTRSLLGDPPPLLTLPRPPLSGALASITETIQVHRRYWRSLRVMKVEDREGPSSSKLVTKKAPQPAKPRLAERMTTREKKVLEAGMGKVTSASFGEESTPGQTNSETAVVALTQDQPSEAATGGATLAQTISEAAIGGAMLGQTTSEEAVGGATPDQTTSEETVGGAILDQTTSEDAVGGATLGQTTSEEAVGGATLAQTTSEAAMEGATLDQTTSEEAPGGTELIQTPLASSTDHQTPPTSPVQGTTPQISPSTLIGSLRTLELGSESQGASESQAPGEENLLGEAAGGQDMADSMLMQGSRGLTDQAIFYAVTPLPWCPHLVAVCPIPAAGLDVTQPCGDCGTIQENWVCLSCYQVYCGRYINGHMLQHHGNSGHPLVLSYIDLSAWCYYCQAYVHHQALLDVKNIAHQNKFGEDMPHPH

Histone deacetylase 1 = Histone deacetylase 1 (Homo sapiens, UniProt Q13547); assay: Inhibition of HDAC1 (unknown origin)
Chain of Histone deacetylase 1 (Q13547 whole entry): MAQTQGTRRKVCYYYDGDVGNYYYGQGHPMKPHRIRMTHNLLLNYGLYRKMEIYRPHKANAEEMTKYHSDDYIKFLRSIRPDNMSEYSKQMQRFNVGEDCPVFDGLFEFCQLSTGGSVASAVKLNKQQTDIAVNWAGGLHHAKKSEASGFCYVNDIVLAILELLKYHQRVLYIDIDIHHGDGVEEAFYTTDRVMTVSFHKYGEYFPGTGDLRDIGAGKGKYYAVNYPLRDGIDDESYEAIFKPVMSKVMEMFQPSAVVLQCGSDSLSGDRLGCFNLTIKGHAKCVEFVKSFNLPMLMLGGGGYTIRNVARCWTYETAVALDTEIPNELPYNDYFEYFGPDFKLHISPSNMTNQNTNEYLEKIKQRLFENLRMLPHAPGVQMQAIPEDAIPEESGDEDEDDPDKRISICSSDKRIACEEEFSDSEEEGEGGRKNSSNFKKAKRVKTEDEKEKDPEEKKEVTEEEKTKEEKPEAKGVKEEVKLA

Histone deacetylase 3 = Histone deacetylase 3 (Homo sapiens, UniProt O15379); assay: Inhibition of HDAC3 (unknown origin)
Chain of Histone deacetylase 3 (O15379 whole entry): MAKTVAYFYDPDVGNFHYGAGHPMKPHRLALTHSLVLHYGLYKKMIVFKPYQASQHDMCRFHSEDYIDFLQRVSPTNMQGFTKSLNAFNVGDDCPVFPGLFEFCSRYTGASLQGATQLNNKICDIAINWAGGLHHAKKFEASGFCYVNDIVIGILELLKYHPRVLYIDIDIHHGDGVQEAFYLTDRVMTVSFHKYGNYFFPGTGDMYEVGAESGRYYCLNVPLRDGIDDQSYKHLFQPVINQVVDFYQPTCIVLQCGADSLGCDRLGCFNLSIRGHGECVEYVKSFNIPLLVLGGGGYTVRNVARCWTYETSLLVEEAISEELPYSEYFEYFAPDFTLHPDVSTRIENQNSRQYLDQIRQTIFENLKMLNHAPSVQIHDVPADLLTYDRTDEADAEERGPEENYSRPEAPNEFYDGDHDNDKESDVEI

B16-F10 [12] = assay: cells; assay type: functional; details: Mus musculus, time 72 hrs

Row | IC50 (Histone deacetylase 8) | inhibition [1] | inhibition [2] | IC50 (SK-OV-3) | IC50 (HCT-116) | IC50 [11] | IC50 (Histone deacetylase 1) | IC50 (Histone deacetylase 3) | SMILES | Activity (B16-F10 [3]) | IC50 at 72 h [4] | Activity (B16-F10 [5]) | Activity (B16-F10 [6]) | inhibition at 5 µM (B16-F10 [7]) | Activity (B16-F10 [8]) | Activity (B16-F10 [9]) | Activity (B16-F10 [10]) | inhibition at 10 µM (B16-F10 [12])
1 | > 10 µM | Active | Active | 8.37 µM | 1.67 µM | > 10 µM | 1.57 µM | 0.4 µM | CCCNNC(=O)c1ccc(NC(=O)c2cnc(-c3ccc(OC(F)(F)F)cc3)s2)cc1 | inactive | 10.9 µM | Dose-dependent-effect; Activity Was Similar To Ms-275 | Active | > 70% | Dose-dependent-effect; Activity Was Similar To Ms-275 | 55.3% | >80% | 54.7%
2 | > 10 µM | Active | Active | 5.76 µM | 3.31 µM | > 10 µM | 4.68 µM | 0.31 µM | CCCNNC(=O)CCCCCCNC(=O)c1cnc(-c2ccc(NC(=O)OC(C)(C)C)cc2)s1 | inactive | 11.5 µM | Dose-dependent-effect; Activity Was Similar To Ms-275 | Active | > 70% | Dose-dependent-effect; Activity Was Similar To Ms-275 | 51.5% | >80% | 60.7%
